For assay [1], the target named is T1, human α4β2 nAChRs (Homo sapiens, UniProt P17787+P43681).
T1 construct: expressed in transfected cells; the efflux text says only stably transfected cells
The assay is classed as cell-based. The conditions noted are these: stimulation of 86Rb+ efflux. How it is done:
(§1) In brief, cells were plated into 24-well plates coated with poly-D-lysine. […] The cells were then incubated in growth medium (0.5 ml/well) containing ^86Rb^+ (2 μCi/ml) for 4 hour at 37° C. The loading mixture was then aspirated, and the cells were washed four times with 1 ml buffer (15 mM HEPES, 140 mM NaCl, 2 mM KCl, 1 mM MgSO4, 1.8 mM CaCl2, 11 mM Glucose, pH 7.4). One ml of buffer with or without compounds to be tested was then added to each well. After incubation for 2 min, the assay buffer was collected for measurements of ^86Rb^+ released from the cells. Cells were then lysed by adding 1 ml of 100 mM NaOH to each well, and the lysate was collected for determination of the amount of ^86Rb^+ that was in the cells at the end of the efflux assay. Radioactivity of assay samples and lysates was measured by liquid scintillation counting. Total loading (cpm) was calculated as the sum of the assay sample and the lysate of each well. The amount of ^86Rb^+ efflux was expressed as a percentage of […] loaded. […] IC50 values were determined by nonlinear least-squares regression analyses (GraphPad, San Diego, Calif.).
(§2) The agonist activities of ligands on nAChRs were assessed by measuring agonist-stimulated ^86Rb^+ efflux from stably transfected cells.

Assay [2] addresses T2, rat α3β4 nAChRs (Rattus norvegicus, UniProt P04757+P12392).
T2 construct: expressed in transfected cells; the efflux text says only stably transfected cells
The assay is classed as cell-based. Particulars: stimulation of 86Rb+ efflux. How it is done: as §1, §2

Assay [3] concerns the target T1, human α4β2 nAChRs. Briefly: Inhibition of nicotine-stimulated 86Rb+ efflux, cells expressing human α4β2 nAChRs. The format is cell-based. How it is done:
as §1

Assay [4] has as its target T2, rat α3β4 nAChRs. Briefly: Inhibition of nicotine-stimulated 86Rb+ efflux, cells expressing rat α3β4 nAChRs. The format is cell-based. As for the experimental part:
as §1

Assay [5] concerns the target T3, rat α4β2 nAChRs (Rattus norvegicus, UniProt P09483+P12390).
T3 construct: expressed in transfected cells; host or cells: HEK cells (membrane homogenates)
Briefly: [3H]epibatidine competition binding, rat α4β2 nAChRs expressed in HEK cells. How it is done:
(§3) Briefly, cultured cells at >80% confluence were removed from their flasks (80 cm^2) with a disposable cell scraper and placed in 10 ml of 50 mM Tris HCl buffer (pH 7.4, 4° C.). The cell suspension was centrifuged at 10,000×g for 5 min and the pellet was collected. For cells treated chronically with nicotinic agonists during culturing, the pellet was washed two more times by centrifugation in fresh buffer to remove residual drug. […] Bound and free ligands were separated by vacuum filtration through Whatman GF/C filters treated with 0.5% polyethylenimine. The filter-retained radioactivity was measured by liquid scintillation counting. Specific binding was defined as the difference between total binding and nonspecific binding. Data from saturation and competition binding assays were analyzed using Prism 4 (GraphPad Software, San Diego, Calif.).
(§4) All ligand binding assays were carried out using rat or human nAChRs heterologously expressed in human cells or in native rat brain tissues.

Assay [6] addresses T2, rat α3β4 nAChRs. Briefly: [3H]epibatidine competition binding, rat α3β4 nAChRs expressed in HEK cells. How it is done: as §3, with “drug. The cell pellet was then homogenized in 10 ml buffer with a polytron homogenizer (Model PT2100, 12 mm aggregate, 26,000 rpm, 20 seconds) and centrifuged at 36,000 g for 10 min at 4° C. The membrane pellet was resuspended in fresh buffer, and aliquots of the membrane preparation equivalent to 30 to 200 μg protein were used for binding assays.” for “drug.”
as §4

The mark [7] stands for this setting: Acute Antagonist Potency (IC50(A), nM) α4β2, applied simultaneously with nicotine.
The mark [8] stands for this setting: Desensitization Potency (IC50(D,10 min), nM) α4β2, 10 min pretreatment before nicotine.
Where [9] appears, read: Acute Antagonist Potency (IC50(A), nM) α3β4, applied simultaneously with nicotine.
Setting [10] is: Desensitization Potency (IC50(D,10 min), nM) α3β4, 10 min pretreatment before nicotine.
The mark [11] stands for this setting: example tables, species not given, read-out: Equilibrium binding affinity (Ki, nM) α4β2.
The mark [12] stands for this setting: example tables, species not given, read-out: Equilibrium binding affinity (Ki, nM) α3β4.
[13] abbreviates: 10 min pretreatment before nicotine, read-out: Desensitization Potency (IC50(D,10 min), nM) α4β2.
Setting [14] is: applied simultaneously with nicotine, read-out: Acute Antagonist Potency (IC50(A), nM) α4β2.
Setting [15] is: 10 min pretreatment before nicotine, read-out: Desensitization Potency (IC50(D,10 min), nM) α3β4.
Setting [16] is: applied simultaneously with nicotine, read-out: Acute Antagonist Potency (IC50(A), nM) α3β4.

Read-outs that look alike come from different tables or passages of the source.

As for `CN1CCC[C@H]1COc1cncc(CCCCCCO)c1` [ZW-91], in assay [1], the “Agonist Activity α4β2” value is listed as “Not detected”. The “Agonist Activity α3β4” value in assay [2] is recorded as “Not detected”. Besides, the IC50 in assay [3] (setting [7]) is more than 10000 nM; in assay [3] (setting [8]), 1000 nM; in assay [4] (setting [9]), more than 10000 nM; in assay [4] (setting [10]), more than 10000 nM.
As for `C#Cc1cncc(OC[C@@H]2CCCN2C)c1` [ZW-87], the Ki in assay [5] (setting [11]) worked out at 1.6 nM; in assay [6] (setting [12]), 6800 nM. In assay [1], the “Agonist Activity α4β2” value is listed as “Not detected”. For the same compound, in assay [2], the “Agonist Activity α3β4” value is listed as “Not detected”. Further, the IC50 in assay [3] (setting [7]) was more than 10000 nM; in assay [3] (setting [8]), 50 nM; in assay [4] (setting [9]), more than 10000 nM; in assay [4] (setting [10]), more than 10000 nM.
As for `FCCCCC#Cc1cncc(OC[C@@H]2CCN2)c1` [ZW-104], the inhibition constant Ki in assay [5] was found to be 0.21 nM; in assay [6] (setting [12]), 5500 nM. The “Agonist Activity α4β2” value in assay [1] is “Not detected”. Further, the “Agonist Activity α3β4” value in assay [2] is given as “Not detected”. Also, the IC50 in assay [3] (setting [7]) was more than 10000 nM; in assay [3] (setting [8]), 5 nM; in assay [4] (setting [9]), 9400 nM; in assay [4] (setting [10]), 5700 nM.
In the case of `Cc1cc2n(c(=O)c1)CC1CNCC2C1` (stereo not shown) [SKC-2-150], the Ki in assay [5] (setting [11]) came to 1.9 nM; in assay [6] (setting [12]), 6700 nM. Further, the “Agonist Activity α4β2” value in assay [1] is recorded as “Not detected”. For the same compound, the “Agonist Activity α3β4” value in assay [2] is reported as “Not detected”. Besides, the IC50 in assay [3] (setting [13]) was 250 nM; in assay [3] (setting [14]), more than 10000 nM; in assay [4] (setting [15]) it was more than 10000 nM; in assay [4] (read-out: Acute Antagonist Potency (IC50(A), nM) α3β4), more than 10000 nM.
As to `CN1CCC[C@H]1COc1cncc(C#CCNC(=O)OC(C)(C)C)c1` [ZW-97], the Ki in assay [5] amounted to 1.4 nM; in assay [6], 75000 nM. Besides, the “Agonist Activity α4β2” value in assay [1] is recorded as “Not detected”. The “Agonist Activity α3β4” value in assay [2] was “Not detected”. In addition, the IC50 in assay [3] (setting [13]) was 22 nM; in assay [3] (setting [14]), more than 10000 nM; in assay [4] (setting [15]), 6900 nM; in assay [4] (setting [16]), more than 10000 nM.
Consider `CN1CCC[C@H]1COc1cncc(C#CCCCCO)c1` [ZW-101], for which the Ki in assay [5] turned out to be 0.67 nM; in assay [6] it was 16000 nM. Moreover, the “Agonist Activity α4β2” value in assay [1] is given as “Not detected”. Besides, in assay [2], the “Agonist Activity α3β4” value is reported as “Not detected”. Also, the 50% inhibitory concentration (IC50) in assay [3] (setting [13]) was 160 nM; in assay [3] (setting [14]), more than 10000 nM; in assay [4] (setting [15]), 2500 nM; in assay [4] (setting [16]), more than 10000 nM.
Take `CN1CCC[C@H]1COc1cncc(C#CCCCCCCCCO)c1` [ZW-93]: the Ki in assay [5] (setting [11]) was determined as 6.1 nM; in assay [6] (setting [12]) it was 66000 nM. The “Agonist Activity α4β2” value in assay [1] is reported as “Not detected”. Moreover, in assay [2], the “Agonist Activity α3β4” value is listed as “Not detected”. Moreover, the concentration for half-maximal inhibition (IC50) amounted to 7400 nM in assay [3] (setting [7]), 460 nM in assay [3] (setting [8]), 4600 nM in assay [4] (setting [9]) and 3800 nM in assay [4] (setting [10]).
Turning to `CNc1ccccc1C(=O)OCC#Cc1cncc(OC[C@@H]2CCN2)c1` [Sazetidine-B], the Ki in assay [5] is 0.22 nM; in assay [6] it was 1300 nM. Besides, the “Agonist Activity α4β2” value in assay [1] is “Not detected”. For the same compound, the “Agonist Activity α3β4” value in assay [2] is given as “Not detected”. Besides, the IC50 in assay [3] (setting [13]) is 30 nM; in assay [3] (setting [14]) it was more than 10000 nM; in assay [4] (setting [15]), 6000 nM; in assay [4] (setting [16]) it was more than 10000 nM.
On to `FCCCCC#Cc1cncc(OC[C@@H]2CCCN2)c1` [ZW-102], for which the Ki in assay [5] (setting [11]) amounted to 0.91 nM; in assay [6] (setting [12]), 7600 nM. In assay [1], the “Agonist Activity α4β2” value is on record as “Not detected”. Further, the “Agonist Activity α3β4” value in assay [2] is “Not detected”. The IC50 was more than 10000 nM in assay [3] (setting [7]), 120 nM in assay [3] (setting [8]), more than 10000 nM in assay [4] (setting [9]) and 5400 nM in assay [4] (setting [10]).

As usually defined, the IC50 is the concentration that inhibits the measured activity by half. Broadly, the Ki is the dissociation constant of the complex between target and ligand, obtained from inhibition or displacement.

The record behind these values is patent US8642612B2, “Nicotinic desensitizers and methods of selecting, testing, and using them” (Potomac Pharmaceuticals, Inc., priority 2006, dated 2014).
